The results in this text go back to patent US9150592B2, “Heterocyclic nuclear hormone receptor modulators” (AbbVie Inc., priority 2012, dated 2015).

The subject of experiment [1] is IL-6 in A549 cells stimulated with IL-1β. As to the kind of experiment: A549 Cell Assay to Measure Inflammation Markers (inhibition of IL-1β-induced IL-6). Type of experiment: cell-based. The settings on record: intrinsic activity, Emax class ranges; for Emax: Homo sapiens, A549, A549 Cell Assay to Measure Inflammation Markers. The procedure:
A549 Cell Assay to Measure Inflammation Markers
Further dilution (1:250) of compound was made into assay medium and 50 μL/well diluted drug or DMSO/media control was applied to cells. After a 1 h pre-incubation in a temperature, CO2, and humidity controlled incubator, set to 37° C., 50 μL/well of 4 ng/mL IL-1β diluted in assay media, was applied to cultures. Assay plates, with a final volume of 200 μL/well and final concentrations of 0.1% DMSO and 1 ng/mL IL-1β were returned to incubator for a […] incubation period. Next, plates were spun at 183 g (1000 rpm in Beckman/Coulter Allegra 6KR centrifuge) for 10 min. Cell-free supernatant (150 μL/well) was collected and IL-6 was measured by MSD kit, following protocol of manufacturer, and using MSD SECTOR Imager 6000 instrument. […] Results were represented as IC50 and Emax values.

Experiment [2] concerns the target T1, Glucocorticoid Receptor (GR) (Homo sapiens, UniProt P04150).
T1 construct: purchased Invitrogen P2893
T1 sequence (P04150 1-777): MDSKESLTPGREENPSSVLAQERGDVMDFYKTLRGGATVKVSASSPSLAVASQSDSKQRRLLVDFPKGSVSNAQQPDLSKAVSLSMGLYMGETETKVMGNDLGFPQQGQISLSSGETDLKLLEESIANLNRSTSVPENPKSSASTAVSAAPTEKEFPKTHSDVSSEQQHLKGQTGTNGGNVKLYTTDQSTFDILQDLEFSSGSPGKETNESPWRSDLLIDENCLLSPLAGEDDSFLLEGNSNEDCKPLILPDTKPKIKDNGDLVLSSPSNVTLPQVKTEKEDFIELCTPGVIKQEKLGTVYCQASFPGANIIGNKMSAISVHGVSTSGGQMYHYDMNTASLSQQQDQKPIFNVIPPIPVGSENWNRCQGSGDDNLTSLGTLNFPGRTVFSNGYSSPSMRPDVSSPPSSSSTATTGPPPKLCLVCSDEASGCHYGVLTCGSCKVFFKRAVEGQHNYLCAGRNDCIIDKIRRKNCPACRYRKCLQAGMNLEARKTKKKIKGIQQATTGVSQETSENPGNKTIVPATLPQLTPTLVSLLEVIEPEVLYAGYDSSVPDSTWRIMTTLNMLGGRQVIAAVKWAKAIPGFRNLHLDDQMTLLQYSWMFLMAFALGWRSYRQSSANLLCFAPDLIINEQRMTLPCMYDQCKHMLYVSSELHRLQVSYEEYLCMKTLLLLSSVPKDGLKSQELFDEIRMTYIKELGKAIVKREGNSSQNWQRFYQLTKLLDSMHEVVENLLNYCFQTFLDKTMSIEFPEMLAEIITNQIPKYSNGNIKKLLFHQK
Put plainly: GR Fluorescence Polarization Assay (PolarScreen Glucocorticoid Receptor Competitor Assay, Red). The settings on record: IC50 class ranges, read-out: GR binding. In short, it runs like this: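 Competitive fluorescence-polarization assay using a red fluorescent glucocorticoid tracer with human GR in kit buffer. Compounds serially diluted 1:4 in DMSO, incubated with tracer and GR overnight at 4° C, then polarization read.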
(Fluorescence polarisation rises when a labelled molecule tumbles more slowly, as on binding a larger partner.)

In the case of `COC(=O)c1cc(C2SCCNc3c2c(-c2ccccn2)nn3C)c(C)s1` (stereo not shown) [E.5], in experiment [1], the Emax (commonly the maximal effect, on the per cent scale that the assay sets) is below 50%. Also, in experiment [2], the IC50 was 1000 to 10000 nM.

For the compound `Cc1cc(C(=O)Nc2cccnc2C)sc1C1SCCNc2c1c(-c1ccccn1)nn2C` (stereo not shown) [F.4], the Emax in experiment [1] is below 50%. The IC50 in experiment [2] was above 10000 nM.

For `Cc1cc(Br)ccc1C1SCC(C#N)Nc2c1c(-c1ccccn1)nn2C` (racemic), the Emax in experiment [1] was above 60%. Besides, in experiment [2], the IC50 was below 100 nM.

`Cc1cc(C(=O)Nc2cccnc2C)ccc1[C@@H]1SCCNc2c1c(-c1ccccn1)nn2C`: in experiment [1] (A549 Cell Assay to Measure Inflammation Markers), the “A549 Emax” value is “A (a compound with Emax>70%)”. Moreover, in experiment [2], the IC50 is below 100 nM.

In turn, `Cc1cc(O)ccc1C1SCCNc2c1c(-c1ccccn1)nn2C` (stereo not shown) [D.42, 3-methyl-4-[1-methyl-3-(2-pyridyl)-4,6,7,8-tetrahydropyrazolo[3,4-e][1,4]thiazepin-4-yl]phenol] showed an Emax in experiment [1] above 50%. For the same compound, the IC50 in experiment [2] was below 100 nM.

`Cc1cc(Cl)ccc1[C@H]1SC(C)(C)CNc2c1c(C1CC1)nn2C` registered an Emax in experiment [1] above 60%. Also, the IC50 in experiment [2] is below 100 nM.

`Cc1ccc(C(=O)Nc2cccnc2C)cc1C1SCCNc2c1c(-c1ccccn1)nn2C` (stereo not shown) [F.5]: the Emax in experiment [1] was below 50%. Besides, in experiment [2], the IC50 is above 10000 nM.

Consider `Cn1nc(-c2nccs2)c2c1NCC(C)(C)SC2c1ccc(Cl)cc1Cl` (stereo not shown) [D.17], for which the Emax in experiment [1] is below 50%. Besides, the IC50 in experiment [2] lay within 100 to 1000 nM.

In turn, `Cc1cc(Br)ccc1[C@@H]1SC[C@H](CO)Nc2c1c(-c1ccccn1)nn2C` (racemic) [K.9] came in with an Emax in experiment [1] below 50%. In experiment [2], the IC50 was below 100 nM.

`Cn1nc(-c2ccc(F)cc2)c2c1NCCSC2c1ccc(Cl)cc1Cl` (stereo not shown) [D.94] registered an Emax in experiment [1] below 50%. Besides, in experiment [2], the IC50 is below 100 nM.

The compound `Cc1cc(C(=O)Nc2cccnc2C)ccc1[C@H]1CC[C@](O)(C(F)(F)F)Cc2c1c(-c1ccccn1)nn2C` (racemic) returned an Emax in experiment [1] above 70%. For the same compound, the IC50 in experiment [2] is below 100 nM.

The compound `CC(=O)N1CCC(C2SCCNc3c2c(-c2ccccn2)nn3C)CC1` (stereo not shown) gave an Emax in experiment [1] below 50%. In addition, the IC50 in experiment [2] was above 10000 nM.

In turn, `Cc1cc(Cl)ccc1C1SCC(C)Nc2c1c(-c1ccccn1)nn2C` (racemic) [4-(4-chloro-2-methyl-phenyl)-1,7-dimethyl-3-(2-pyridyl)-4,6,7,8-tetrahydropyrazolo[3,4-e][1,4]thiazepine] returned an Emax in experiment [1] above 70%. Also, the IC50 in experiment [2] is below 100 nM.

`Cn1nc(-c2ccc(Br)cn2)c2c1NCCSC2c1ccc(Cl)cc1Cl` (stereo not shown) [D.15, 3-(5-bromo-2-pyridyl)-4-(2,4-dichlorophenyl)-1-methyl-4,6,7,8-tetrahydropyrazolo[3,4-e][1,4]thiazepine] had an Emax in experiment [1] below 50%. Moreover, the IC50 in experiment [2] was below 100 nM.

In experiment [1], `Cc1cc(Br)ccc1C1SC(C)CNc2c1c(C)nn2C` (stereo not shown) [D.62, 4-(4-bromo-2-methyl-phenyl)-1,3,6-trimethyl-4,6,7,8-tetrahydropyrazolo[3,4-e][1,4]thiazepine] showed an Emax below 50%. The IC50 in experiment [2] is 100 to 1000 nM.

In experiment [1], `Cc1cc(C(=O)Nc2cccnc2C)ccc1[C@@H]1SC[C@H](C)Nc2c1c(-c1ccncn1)nn2C` (single isomer, unassigned) [M.58, 4-(1,7-dimethyl-3-(pyrimidin-4-yl)-4,6,7,8-tetrahydro-1H-pyrazolo[3,4-e][1,4]thiazepin-4-yl)-3-methyl-N-(2-methylpyridin-3-yl)benzamide] gave an Emax above 70%. In addition, the IC50 in experiment [2] is below 100 nM.

In turn, `Cn1nc(-c2ccccn2)c2c1NCCSC2c1ccc(Cl)cc1Br` (stereo not shown) [D.37, 4-(2-bromo-4-chloro-phenyl)-1-methyl-3-(2-pyridyl)-4,6,7,8-tetrahydropyrazolo[3,4-e][1,4]thiazepine] came in with an Emax in experiment [1] above 50%. In addition, the IC50 in experiment [2] is below 100 nM.

In the case of `Cc1ncccc1NC(=O)c1cc(C2SCCNc3c2c(-c2ccccn2)nn3C)c(C)s1` (stereo not shown) [F.6], the Emax in experiment [1] is below 50%. Moreover, in experiment [2], the IC50 lay within 1000 to 10000 nM.

In experiment [1], `CC1=Nc2c(c(-c3ccccn3)nn2C)C(c2ccc(Cl)cc2C)SC1` (stereo not shown) returned an Emax below 50%. For the same compound, the IC50 in experiment [2] is 100 to 1000 nM.

In experiment [1], `Cc1cc(S(C)(=O)=O)ccc1C1SCCNc2c1c(-c1ccccn1)nn2C` (stereo not shown) showed an Emax below 50%. Further, the IC50 in experiment [2] was 100 to 1000 nM.

Compound `Cc1nn(C)c2c1C(c1ccc(Cl)cc1Cl)SC(C)(C)CN2` (stereo not shown) [D.4, 4-(2,4-dichlorophenyl)-1,3,6,6-tetramethyl-7,8-dihydro-4H-pyrazolo[3,4-e][1,4]thiazepine] registered an Emax in experiment [1] below 50%. Further, in experiment [2], the IC50 was below 100 nM.

`Cn1nc(-c2ccccn2)c2c1NCCS(=O)(=O)C2c1ccc(Cl)cc1Cl` (stereo not shown) [L.3] yielded an Emax in experiment [1] below 50%. In addition, the IC50 in experiment [2] was in the range of 100 to 1000 nM.

In experiment [1], `Cc1cc(Cl)ccc1C1SCCNc2c1c(-c1ccn[nH]1)nn2C` (stereo not shown) registered an Emax below 50%. Further, in experiment [2], the IC50 was 100 to 1000 nM.

In turn, `Cn1nc(-c2ccccn2)c2c1NCCSC2c1ccncc1Cl` (stereo not shown) [D.7] yielded an Emax in experiment [1] below 50%. In addition, the IC50 in experiment [2] is below 100 nM.

For the compound `Cc1cc(OCC(N)=O)ccc1[C@@H]1SC[C@@H](C)Nc2c1c(-c1ccccn1)nn2C` (single isomer, unassigned) [M.24, 2-(4-(1,7-dimethyl-3-(pyridin-2-yl)-4,6,7,8-tetrahydro-1H-pyrazolo[3,4-e][1,4]thiazepin-4-yl)-3-methylphenoxy)acetamide], in experiment [1], the Emax was above 70%. For the same compound, in experiment [2], the IC50 was below 100 nM.

Take `Cn1nc(-c2cc(F)cc(F)c2)c2c1NCCSC2c1ccc(Cl)cc1Cl` (stereo not shown) [D.90]: the Emax in experiment [1] was below 50%. Moreover, the IC50 in experiment [2] was below 100 nM.

Take `Cc1cc(Cl)ccc1[C@H]1S[C@H](CCO)CNc2c1c(C)nn2C` (single isomer, unassigned) [M.14, 2-[4-(4-chloro-2-methyl-phenyl)-1,3-dimethyl-4,6,7,8-tetrahydro-1H-pyrazolo[3,4-e][1,4]thiazepin-6-yl]-ethanol]: the Emax in experiment [1] was above 70%. Also, the IC50 in experiment [2] lay within 100 to 1000 nM.

Compound `Cc1cc(Cl)ccc1C1SCCNc2c1c(-c1cc(Cl)ccn1)nn2C` (stereo not shown) [D.24] yielded an Emax in experiment [1] below 50%. In experiment [2], the IC50 is below 100 nM.

In the case of `Cc1cc(OCc2cccnc2C)ccc1C1SCCNc2c1c(-c1ccccn1)nn2C` (stereo not shown), in experiment [1], the Emax was below 50%. The IC50 in experiment [2] is below 100 nM.

For the compound `Cc1cc(Cl)ccc1[C@H]1SC[C@@H](C)Nc2c1c(C)nn2C` (racemic) [K.7], in experiment [1], the Emax is below 50%. Besides, the IC50 in experiment [2] was below 100 nM.

In experiment [1], `CCn1nc(-c2ccccn2)c2c1NC(=O)CCC2c1ccc(Br)cc1C` (stereo not shown) [AA.1, 4-(4-Bromo-2-methylphenyl)-1-ethyl-3-(pyridin-2-yl)-4,5,6,8-tetrahydropyrazolo[3,4-b]azepin-7(1H)-one] had an Emax below 50%. In addition, the IC50 in experiment [2] was below 100 nM.

Regarding `Cc1ccc(C)c(C2SC(C)(C)CNc3c2c(C2CC2)nn3C)c1` (stereo not shown) [D.49], the Emax in experiment [1] is below 50%. Also, in experiment [2], the IC50 is below 100 nM.

Compound `Cc1cc(C(=O)Nc2cccnc2C)ccc1C1SCC(C)Nc2c1c(-c1ccccn1)nn2C` (stereo not shown) [H.6] came in with an Emax in experiment [1] above 70%. Moreover, the IC50 in experiment [2] is below 100 nM.

In the case of `Cc1cc(Cl)ccc1C1SCCNc2c1c(-c1cc(Br)ccn1)nn2C` (stereo not shown) [D.19], in experiment [1], the Emax is below 50%. Moreover, the IC50 in experiment [2] was below 100 nM.

In the case of `Cc1cccc(C2SCCNc3c2c(-c2ccccn2)nn3C)c1C` (stereo not shown) [D.33], the Emax in experiment [1] was below 50%. Further, the IC50 in experiment [2] lay within 100 to 1000 nM.

In experiment [1], `CCn1nc(-c2ccccn2)c2c1N[C@H](C)CS[C@H]2c1ccc(CCC(C)(C)O)cc1C` (single isomer, unassigned) [M.40, 4-(4-(1-ethyl-7-methyl-3-(pyridin-2-yl)-4,6,7,8-tetrahydro-1H-pyrazolo[3,4-e][1,4]thiazepin-4-yl)-3-methylphenyl)-2-methylbutan-2-ol] yielded an Emax above 70%. Also, the IC50 in experiment [2] was below 100 nM.

The compound `Cc1cc(C#CCCO)ccc1[C@@H]1SC[C@@H](C)Nc2c1c(-c1ccccn1)nn2C` (single isomer, unassigned) [M.55, 4-(4-(1,7-dimethyl-3-(pyridin-2-yl)-4,6,7,8-tetrahydro-1H-pyrazolo[3,4-e][1,4]thiazepin-4-yl)-3-methylphenyl)but-3-yn-1-ol] registered an Emax in experiment [1] below 50%. Besides, in experiment [2], the IC50 is below 100 nM.

`Cn1nc(C2CCCC2)c2c1NCCSC2c1ccc(Cl)cc1Cl` (stereo not shown) [D.77] had an Emax in experiment [1] below 50%. Further, the IC50 in experiment [2] was below 100 nM.
